The subject of one data set is C. albicans B4. The data set can be described thus: microbe, parasite or virus in culture. The data set is classed as cell-based, Candida albicans. The settings on record: for times higher resistance of B4 than B3: B4 vs B3; for MIC50: Candida albicans, B4, 48 h. From the text:
(§1) The C. albicans CAF2-1 (Genotype/Description: ura3Δ::imm434/URA3[89]) and DSY1050 (Genotype/Description: cdr1Δ::hisG/cdr1Δ::hisG/cdr2Δ::hisG/cdr2Δ::hisG/mdr1Δ::hisG-URA3-hisG/mdr1Δ::hisG[90]) strains used in this study were generous gift from D. Sanglard (Lausanne, Switzerland)[91],[92] whereas C. albicans B3 and Gu4 (Genotype/Description: clinical isolates fluconazole sensitive)[93]), B4 (Genotype/Description: Clinical isolate fluconazole resistant due to the overexpression of MDR1[93]) and Gu5 (Genotype/Description: Clinical isolate fluconazole resistant due to the overexpression of CDR1 and CDR2[93]) were a generous gift from prof. S. Milewski (Gdańsk, Poland)[94] and prof. J. Morschhäuser (Wurzburg, Germany)[93]. All strains were grown at 37 °C on Sabouraud medium (Biomerieux).
(§2) The antifungal activity was determined on the 96-well polystyrene microtiter plates (Sarstedt) according to Clinical and Laboratory Standards Institute M27-A3[95]. […] The compounds were dissolved in DMSO (10 mM) and then serially diluted in RPMI-1640 (ThermoFisher) medium to obtain the final concentration range. Inocula of all strains were prepared as suspensions with turbidity of 0.5 McFarland standard in sterile 0.85% saline and diluted in RPMI-1640. After inoculation, each well contained appr. 5 × 10^2 CFU/mL. The plates were cultivated for 48 h at 37 °C. Optical density was measured at A490nm using a microplate reader ASYS UVM 340 (Biogenet).

Another data set has as its system C. albicans CAF2-1. Description: microbe, parasite or virus in culture. The settings on record: for times more active than Flc: C. albicans CAF2-1, MIC50 ratio; for MIC50: Candida albicans, CAF21, 48 h. The data set is classed as cell-based, Candida albicans.
Excerpt: as §1, §2

A further data set has as its system C. albicans DSY1050. The data set can be described thus: microbe, parasite or virus in culture. Type of data set: cell-based, Candida albicans. The settings on record: for MIC50: Candida albicans, DSY1050, 48 h; for times more susceptible than parental strain (CAF2-1): DSY1050 vs CAF2-1.
Excerpt: as §1, §2

For another data set, the system named is C. albicans Gu5. Description: microbe, parasite or virus in culture. The data set is classed as cell-based, Candida albicans. To be noted: for times more resistant than Gu4 strain: Gu5 vs Gu4.
Excerpt: as §1, §2

The subject of data set [1] is hASCs (p53, p21, BAX, BCL-2 transcripts). Description: Apoptosis-related transcripts by qRT-PCR in hASCs. Type of data set: cell-based, human. The settings on record: 20 µM, 24 h; for expression of p53 gene / expression of p21 transcript / relative expression level of BAX / relative expression level of BCL-2: hASCs; for expression of p53 gene: vs control cells; for expression of p21 transcript: vs control group, p < 0.001; for relative expression level of BAX / relative expression level of BCL-2: vs control, differences not significant. The procedure: Cellular apoptosis level was assessed using quantitative reverse transcriptase real-time polymerase chain reaction (qRT-PCR). First, the cells were seeded in a 24-well plate at a concentration of 3 × 10^4 cells/well in DMEM with Nutrient F-12 Ham complete medium and left in the CO2 incubator overnight to allow cells to attach. […] After 24 h of challenge with the compounds, the cells were homogenized with TRI Reagent and total RNA was isolated by phenol-chloroform extraction and ethanol precipitation. RNA purity and quantity were measured at a wavelength of 260 and 280 nm (Epoch, Biotek). Genomic DNA was removed with DNase I, RNase-free ([…]) (Thermo Scientific, Poland) and cDNA was synthesized using RevertAid First Strand cDNA Synthesis Kit (Thermo Scientific, Poland). 150 ng of total RNA served as a template for a single reaction using T100 Thermo Cycler (Bio-Rad, USA). The expression levels of p53 tumor suppressor, cyclin dependent kinase inhibitor 1A (p21), apoptosis regulators BAX and BCL-2 were determined. qRT-PCR was performed on a CFX Connect^TM Real-Time PCR Detection System (Bio-Rad) using SensiFast SYBR & Fluorescein Kit (Bioline, Cincinnati, OH, USA) and primer pairs as listed in Table S4 in ESI. 500 nM of specific primers and 1 µL of cDNA in a 10 µL final volume were applied in each reaction. The quantitative expression of the genes was calculated by the 2^−ΔΔCT method using GAPDH as housekeeping genes.
Statistical analysis was performed with GraphPad Prism 5 software (San Diego, USA). All data values are presented as mean ± SD, measured in triplicates or more. Statistical significance between groups was determined using two-way ANOVA grouped analysis.
For orientation: Quantitative PCR measures a nucleic acid by following its amplification.

The nature of data set [2]: Cytotoxicity IC50, TOX-8 resazurin assay, hASCs, 24 h. Type of data set: cell-based, human. To be noted: female, human. As to the method:
Human Adipose Tissue-derived Stem Cells (hASCs) were isolated from subcutaneous adipose tissue fragments harvested from non-diabetic female donors (age range 33–38, n = 2) during standard surgical procedure of total hip arthroplasty. Immediately after collection of tissue, the samples were placed in sterile tissue-transport medium (Hank’s Balanced Salt Solution (HBSS) supplemented with 1% Penicillin/Streptomycin/Amphotericin B solution (P/S/A). Mesenchymal stromal cell isolation was performed using enzymatic digestion of extracellular matrix with collagenase type I. Before digestion, tissue specimens were washed twice with HBSS and incubated in collagenase type I solution (1 mg/mL) at 37 °C for 40 min. The digest was subsequently centrifuged (1200 × g; 10 minutes; room temperature) and the cell pellet was resuspended in Dulbecco’s modified Eagle’s medium (DMEM) with Nutrient F-12 Ham, 10% of Fetal Bovine Serum (FBS), and 1% of P/S/A, transferred to a culture flask, and kept in culture under optimal conditions (37 °C in a humidified atmosphere of 5% CO2). The medium was refreshed every 2–3 days. At 80–90% confluence, the cells were passaged using trypsin solution (TrypLE Express, Life Technologies, California, USA). At passage 3, hASCs were collected and cellular phenotype was confirmed by the high expression of markers CD44, CD29, CD73, CD105 and low expression of CD45. Moreover, the trilineage differentiation capacity of ASCs was confirmed as previously described.
The IC50 values were determined using in vitro Toxicology TOX-8 Assay Kit (resazurin based) according to the manufacturer’s protocol. For this assay, cells were seeded in a 96-well plate at a density of 5 × 10^3 cells/well. The cells were pre-incubated in drug-free complete medium for 24 h before adding various concentrations of the compounds to be investigated. Stock solutions of the compounds were prepared in DMSO following serial dilutions in DMEM with Nutrient F-12 Ham complete medium. The cells exposure period was 24 h. After that time media were replaced with 10% v/v resazurin dye solution in fresh complete culture medium. Incubation was carried out for 2 h at 37 °C in the CO2 incubator. Reduction of the dye was measured spectrophotometrically at 600 nm and 690 nm reference wavelength (Epoch, Biotek). Absorbance measurements allowed the determination of viable treated cells relative to untreated controls using the inflection point of a dose-response graph. IC50 values were estimated as duplicates of triplicate readings in two independent experiments.
(In general: Alamar Blue is a resazurin reagent that responds to reducing activity.)

Setting [3] is: C. albicans Gu5, RPMI-1640, 37 °C, 48 h.
The mark [4] stands for this setting: hASCs, TOX-8 assay, 24 h, read-out: IC50 (cytotoxicity, hASCs viability).

Converted amounts (≈) assume the structure as drawn. Like-named read-outs stand apart in the source and are kept apart here. Where only a bound is given, the exact number is not on record here.

Consider `O=P(CN1CCN(c2ccc(OC[C@H]3CO[C@](Cn4ccnc4)(c4ccc(Cl)cc4Cl)O3)cc2)CC1)(c1ccccc1)c1ccccc1` (racemic) [KeOP, Ph2P(O)CH2-Ke], for which, in the data set on C. albicans B4, the “times higher resistance of B4 than B3” value is on record as “two” and the MIC50 worked out at 3.13 µM (≈ 2.2 µg/mL). In the data set with C. albicans CAF2-1, the “times more active than Flc” value is reported as “eight” and the MIC50 was 0.78 µM (≈ 0.549 µg/mL). In the data set on C. albicans DSY1050, the MIC50 worked out at 0.2 µM (≈ 0.141 µg/mL) and the “times more susceptible than parental strain (CAF2-1)” value is recorded as “four”. The compound further yielded an MIC50 against C. albicans Gu5 (Candida albicans, GU5, 48 h) of 25 µM (≈ 17.6 µg/mL). The “times more resistant than Gu4 strain” value in the data set with C. albicans Gu5 is “two”. Further, in data set [1], the “induction of apoptosis in hASC cultures” value is reported as “did not induce apoptosis”, the “expression of p53 gene” value is recorded as “no significant changes”, the “expression of p21 transcript” value is recorded as “elevated expression” and the “relative expression level of BAX” value is given as “higher”. The “relative expression level of BCL-2” value in data set [1] was “higher”.
For the compound `S=P(CN1CCN(c2ccc(OC[C@H]3CO[C@](Cn4ccnc4)(c4ccc(Cl)cc4Cl)O3)cc2)CC1)(c1ccccc1)c1ccccc1` [KeSP, Ph2P(S)CH2-Ke], the “times higher resistance of B4 than B3” value in the data set with C. albicans B4 is “two”. Besides, the MIC50 is 3.13 µM (≈ 2.25 µg/mL) against C. albicans B4; 3.13 µM (≈ 2.25 µg/mL) in the data set with C. albicans CAF2-1; 0.39 µM (≈ 0.281 µg/mL) against C. albicans DSY1050; “no inhibitory effect” against C. albicans Gu5 (setting [3]); > 200 µM in the data set on C. albicans Gu5 (Candida albicans, GU5, 48 h). For the same compound, in the data set on C. albicans CAF2-1, the “times more active than Flc” value is listed as “two”. Also, the “times more susceptible than parental strain (CAF2-1)” value in the data set with C. albicans DSY1050 is “eight”.
The IC50 is the concentration at which inhibition is half-maximal. For `Clc1ccc([C@@]2(Cn3ccnc3)OC[C@H](COc3ccc(N4CCN(CP(c5ccccc5)c5ccccc5)CC4)cc3)O2)c(Cl)c1` (racemic) [KeP, Ph2PCH2-Ke], in the data set on C. albicans B4, the “times higher resistance of B4 than B3” value was “eight” and the MIC50 was determined as 3.13 µM (≈ 2.15 µg/mL). For the same compound, in the data set with C. albicans CAF2-1, the “times more active than Flc” value is given as “two” and the MIC50 worked out at 3.13 µM (≈ 2.15 µg/mL). In addition, in the data set on C. albicans DSY1050, the MIC50 amounted to 0.78 µM (≈ 0.536 µg/mL) and the “times more susceptible than parental strain (CAF2-1)” value is given as “four”. In the data set with C. albicans Gu5 (Candida albicans, GU5, 48 h), this compound displayed an MIC50 of 50 µM (≈ 34.4 µg/mL). Moreover, the “times more resistant than Gu4 strain” value in the data set with C. albicans Gu5 is recorded as “sixteen”. The IC50 at 24 h in data set [2] (IC50 (cytotoxicity, hASCs viability)) is 37.6 µM. Further, in data set [1], the “induction of apoptosis in hASC cultures” value is “did not induce apoptosis”, the “expression of p53 gene” value is given as “no significant changes”, the “expression of p21 transcript” value was “elevated expression” and the “relative expression level of BAX” value is recorded as “higher”. The “relative expression level of BCL-2” value in data set [1] was “higher”.
On to `CC(=O)N1CCN(c2ccc(OCC3COC(Cn4ccnc4)(c4ccc(Cl)cc4Cl)O3)cc2)CC1` (stereo not shown) [Ke, ketoconazole, reference compound], for which the MIC50 was 0.39 µM (≈ 0.207 µg/mL) in the data set on C. albicans B4; 0.05 µM (≈ 0.0266 µg/mL) in the data set on C. albicans CAF2-1; 0.02 µM (≈ 0.0106 µg/mL) with C. albicans DSY1050; 50 µM (≈ 26.6 µg/mL) with C. albicans Gu5 (Candida albicans, GU5, 48 h). The IC50 at 24 h in data set [2] (setting [4]) stood at 121 µM. In data set [1], the “induction of apoptosis in hASC cultures” value is “did not induce apoptosis”. Further, the “expression of p53 gene” value in data set [1] is listed as “no significant changes”. The “expression of p21 transcript” value in data set [1] is reported as “elevated expression”.
`Clc1ccc([C@@]2(Cn3ccnc3)OC[C@H](COc3ccc(N4CCN(CP(=[Se])(c5ccccc5)c5ccccc5)CC4)cc3)O2)c(Cl)c1` [KeSeP, Ph2P(Se)CH2-Ke]: the “times higher resistance of B4 than B3” value in the data set on C. albicans B4 is “two”. Besides, the MIC50 in the data set on C. albicans B4 was 6.25 µM (≈ 4.79 µg/mL); in the data set on C. albicans CAF2-1, 3.13 µM (≈ 2.4 µg/mL); against C. albicans DSY1050 it was 0.78 µM (≈ 0.598 µg/mL); with C. albicans Gu5 (setting [3]) it was “no inhibitory effect”; with C. albicans Gu5 (Candida albicans, GU5, 48 h), > 200 µM. In addition, in the data set with C. albicans CAF2-1, the “times more active than Flc” value was “two”. Also, in the data set on C. albicans DSY1050, the “times more susceptible than parental strain (CAF2-1)” value was “four”. Also, the IC50 at 24 h in data set [2] (setting [4]) was found to be 110 µM.

Source of the values: publication PMC6838151 (Scientific Reports, 2019).
